These results are taken from patent US20210181179A1, “DIAGNOSIS AND TREATMENT OF IMMUNOTHERAPY-INDUCED NEUROTOXICITY” (MEMORIAL SLOAN KETTERING CANCER CENTER, priority 2018, published 2021).

This assay has as its system adult patients with CD19+B-ALL. The assay is described as follows: Management of neurotoxicity and CRS (tocilizumab, corticosteroid, seizure prophylaxis) in the 19-28z CAR T cell trial. Type of assay: in vivo, human. Particulars: seizure prophylaxis. An excerpt:
The anti-IL-6 receptor monoclonal antibody, tocilizumab, with or without corticosteroid is often used to mitigate CRS and neurotoxicity. Six (18%) of 33 patients with neurotoxicity received tocilizumab alone; 14 (42%) received tocilizumab plus corticosteroid; 4 (12%) received corticosteroid alone; and 9 (27%) received neither tocilizumab nor corticosteroid (FIG. 6/Supplementary Fig. S1). In the 16 patients with severe neurotoxicity who received tocilizumab, 9 (56.3%) had peak neurotoxicity after the first dose of tocilizumab whereas 7 (43.7%) had peak neurotoxicity prior to or on the day of tocilizumab administration. […] The time from first tocilizumab and/or steroid dose to resolution of neurotoxicity (median, 9 days; range 4-21 days) was longer than the time to resolution of CRS (median, 1 day; range 0-3 days; P<0.001), confirming previous findings that neurotoxicity is less responsive than CRS to these treatment interventions.
Toxicity assessment: CRS was graded according to the MSKCC CRS grading system. Severe CRS was defined as ≥grade 3. Neurotoxicity was prospectively graded according to National Cancer Institute common terminology criteria for adverse events (CTCAE) v4.03 by the principal investigator (P). An independent retrospective review of the electronic medical record was performed by a neurologist (BS) who assigned daily neurotoxicity grades to the AE terms according to CTCAE v4.03. Discrepancies were adjudicated by consensus review. All patients developing neurologic symptoms were evaluated by the neurology consult service and followed with daily neurologic assessments until neurologic symptom resolution. Severe neurotoxicity was defined as ≥grade 3 toxicity with the exception that any seizure (including grade 1 or 2 by CTCAE criteria) was included as severe neurotoxicity.

In the case of `CC[C@@H](C(N)=O)N1CCCC1=O` [levetiracetam], the “patients who developed seizure despite levetiracetam prophylaxis” value is 14 patients.
